These are literature values, as cited in patent publication US12465592B2, “Structured encapsulated silicon-containing particles” (SISAF LIMITED, priority 2019, dated 2025).

Bounds are passed on as bounds.

Usually aqueous solubility stands for how much of the substance goes into solution per volume. Take `Clc1ccc(COC(Cn2ccnc2)c2ccc(Cl)cc2Cl)c(Cl)c1` (stereo not shown) [Miconazole]: the aqueous solubility was less than 1 µg/mL.
